Source: patent publication US20040024024A1, “Aromatic sulfone hydroxamates and their use as protease inhibitors” (priority 2001, published 2004)

Key:
[1] = target: T1, Human recombinant MMP-13 (Homo sapiens, UniProt P45452); assay: In vitro MMP inhibition, IC50 determination (fluorogenic substrate I); type: biochemical
T1 construct: made in house; host or cells: baculovirus / insect cells
Outline: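 Fluorescence at 415 nm (excitation 328 nm) reports Gly-Leu cleavage of 4 μM quenched methoxycoumarin peptide substrate I. Human recombinant MMP-13, activated by trypsin or APMA, was incubated at room temperature with varied inhibitor concentrations in pH 7.5 Tris/NaCl/CaCl2 buffer; IC50 derived from reduced fluorescence.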

[2] = target: T2, Human recombinant MMP-2 (Homo sapiens, UniProt P08253); assay: as above; type: biochemical
T2 construct: made in house; host or cells: MMP-2-transfected p2AHT2 cells
T2 sequence (P08253 110-660): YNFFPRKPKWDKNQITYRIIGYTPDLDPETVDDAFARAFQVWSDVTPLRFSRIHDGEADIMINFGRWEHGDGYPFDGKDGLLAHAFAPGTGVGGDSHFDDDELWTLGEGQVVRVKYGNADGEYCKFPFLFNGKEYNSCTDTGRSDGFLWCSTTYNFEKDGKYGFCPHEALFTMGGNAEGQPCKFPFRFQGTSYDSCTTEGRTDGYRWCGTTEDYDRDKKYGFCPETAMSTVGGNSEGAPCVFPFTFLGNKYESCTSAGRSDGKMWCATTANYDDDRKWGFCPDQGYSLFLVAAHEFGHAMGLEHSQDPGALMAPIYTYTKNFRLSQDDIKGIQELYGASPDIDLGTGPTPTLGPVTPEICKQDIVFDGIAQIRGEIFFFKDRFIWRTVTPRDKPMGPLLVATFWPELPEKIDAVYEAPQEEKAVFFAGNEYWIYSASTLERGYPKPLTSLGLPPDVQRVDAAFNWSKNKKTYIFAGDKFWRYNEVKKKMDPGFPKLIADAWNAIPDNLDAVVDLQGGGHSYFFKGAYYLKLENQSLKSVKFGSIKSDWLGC
Outline: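 APMA- or trypsin-activated recombinant MMP-2 was incubated at room temperature with serial inhibitor dilutions in Tris buffer pH 7.5 (100 mM NaCl, 10 mM CaCl2, 0.05% Brij), with DMSO from 1% stocks, and 4 μM substrate I. Cleavage was read by fluorescence at 328/415 nm; IC50 was taken from the loss of fluorescence versus inhibitor concentration.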

[3] = value outside parentheses (Ki in parenthesis)
[4] = substrate (I) 4 μM, room temperature, values not in parenthesis

| SMILES | IC50 [1, 3] [nM] | IC50 [2, 3] [nM] | IC50 ([1]; value outside parenthesis) [nM] | IC50 ([2]; value outside parenthesis) [nM] | also measured |
| --- | --- | --- | --- | --- | --- |
| CCOc1ccc(-c2noc(CCCOc3ccc(S(=O)(=O)C4(C(=O)NO)CCOCC4)cc3)n2)cc1 [Example 275] | – | – | 1.7 | 115 | – |
| O=C(CCCOc1ccc(S(=O)(=O)C2(C(=O)NO)CCN(C3CC3)CC2)cc1)C1CCC(O)(c2ccc(Cl)cc2)CC1 (centres unmarked) [Example 255] | – | – | 1.9 | 51.3 | – |
| CC(=O)NC(C)(C)CCOc1ccc(S(=O)(=O)C2(C(=O)NO)CCN(C3CC3)CC2)cc1 [Example 221] | – | – | 244 | 8800 | – |
| CC(=O)NC(C)(C)CCOc1ccc(S(=O)(=O)C2(C(=O)NO)CCOCC2)cc1 [Example 242] | – | – | 203 | 2720 | – |
| COc1ccc(S(=O)(=O)NCCCOc2ccc(S(=O)(=O)C3(C(=O)NO)CCOCC3)cc2)cc1 [Example 419] | 4 | 120 | – | – | – |
| O=C(NO)C1(S(=O)(=O)c2ccc(OCCCc3nnc(-c4ccc5ccccc5c4)o3)cc2)CCOCC1 [Example 304] | 0.2 | 139 | – | – | – |
| O=C(NO)C1(S(=O)(=O)c2ccc(OCCCc3cccc(-c4ccccn4)c3)cc2)CCOCC1 [Example 153] | – | – | 7.6 | 192 | – |
| C[C@H]1C(=O)N(CCCOc2ccc(S(=O)(=O)C3(C(=O)NO)CCOCC3)cc2)C(=O)N1c1ccccc1 [Example 177] | – | – | 17 | 333 | – |
| COc1ccc(SC[C@H](C)COc2ccc(S(=O)(=O)C3(C(=O)NO)CCOCC3)cc2)cc1 [Example 434] | 0.6 | 1.1 | – | – | – |
| Cn1c(C(=O)NCCOc2ccc(S(=O)(=O)C3(C(=O)NO)CCOCC3)cc2)cc2ccccc21 [Example 592] | – | – | – | – | IC50 ([1]; value outside parentheses): 38.7 nM; IC50 ([2]; value outside parentheses): 336 nM |
| O=C(NO)C1(S(=O)(=O)c2ccc(OCCCc3cccnc3)cc2)CCOCC1 [Example 575] | – | – | – | – | IC50 ([1]; value outside parentheses): 2 nM; IC50 ([2]; value outside parentheses): 8.4 nM |
| O=C(NCCNc1ccc(S(=O)(=O)C2(C(=O)NO)CCOCC2)cc1)c1cc2ccccc2o1 [Example 621] | – | – | – | – | IC50 ([1]; value outside parentheses): 17.8 nM; IC50 ([2]; value outside parentheses): 368 nM |
| O=C(NO)C1(S(=O)(=O)c2ccc(OCCCc3nnc(-c4ccncc4)o3)cc2)CCOCC1 [Example 568] | – | – | – | – | IC50 ([1]; value outside parentheses): 1.5 nM; IC50 ([2]; value outside parentheses): 21 nM |
| COc1ccc(C(=O)NCCCOc2ccc(S(=O)(=O)C3(C(=O)NO)CCOCC3)cc2)cc1 [Example 17, tetrahydro-N-hydroxy-4-[[4-[3-[(4-methoxybenzoyl)amino]propoxy]phenyl]sulfonyl]-2H-pyran-4-carboxamide] | – | – | – | – | IC50 [1, 4]: 1.6 nM; IC50 [2, 4]: 550 nM |
| COc1ccc(OC)c(S(=O)(=O)NCC(CCl)Oc2ccc(S(=O)(=O)C3(C(=O)NO)CCOCC3)cc2)c1 (centres unmarked) [Example 485] | 64 | 4000 | – | – | – |
| COCCN1CCC(C(=O)NO)(S(=O)(=O)c2ccc(OCCCn3nc(C(F)(F)F)cc3C(F)(F)F)cc2)CC1 [Example 253] | – | – | 32.4 | 1450 | – |
| O=C(NO)C1(S(=O)(=O)c2ccc(OCCc3cccc(-c4cncnc4)c3)cc2)CCOCC1 [Example 521] | – | – | – | – | IC50 ([1]; value outside parentheses): 5.8 nM; IC50 ([2]; value outside parentheses): 62 nM |

| SMILES | IC50 [1, 3] [nM] | IC50 [2, 3] [nM] | IC50 ([1]; value outside parenthesis) [nM] | IC50 ([2]; value outside parenthesis) [nM] | also measured |
| --- | --- | --- | --- | --- | --- |
| O=C(CCCOc1ccc(S(=O)(=O)C2(C(=O)NO)CCOCC2)cc1)Nc1cccc(-c2ccccc2)c1 [Example 571] | – | – | – | – | IC50 ([1]; value outside parentheses): 1.6 nM; IC50 ([2]; value outside parentheses): 11.9 nM |
| CC(C)CCc1cccc(CCCOc2ccc(S(=O)(=O)C3(C(=O)NO)CCOCC3)cc2)c1 [Example 96] | – | – | 15.3 | 39.1 | – |
| CC(C)Cc1cccc(CCCOc2ccc(S(=O)(=O)C3(C(=O)NO)CCOCC3)cc2)c1 [Example 640] | – | – | – | – | IC50 ([1]; value outside parentheses): 10.4 nM; IC50 ([2]; value outside parentheses): 324 nM |
| CCCCc1ccc(N2CCN(CCCOc3ccc(S(=O)(=O)C4(C(=O)NO)CCOCC4)cc3)C2=O)cc1 [Example 192] | – | – | 15.4 | 1260 | – |
| O=C(NO)C1(S(=O)(=O)c2ccc(OCCCc3ccc4ccccc4c3)cc2)CCOCC1 [Example 36] | – | – | – | – | IC50 [1, 4]: 2.4 nM; IC50 [2, 4]: 95 nM |
| COc1ccc(C(=O)N(C)CCCOc2ccc(S(=O)(=O)C3(C(=O)NO)CCOCC3)cc2)cc1 [Example 205] | – | – | 17.6 | 4780 | – |
| O=C(NCCCOc1ccc(S(=O)(=O)C2(C(=O)NO)CCOCC2)cc1)c1ccccc1O [Example 372] | 6 | 210 | – | – | – |
| O=C(NCCCOc1ccc(S(=O)(=O)C2(C(=O)NO)CCOCC2)cc1)c1ccc2ccccc2c1 [Example 366] | 0.3 | 347 | – | – | – |
| O=C(NCCCOc1ccc(S(=O)(=O)C2(C(=O)NO)CCOCC2)cc1)c1ccc2ccccc2n1 [Example 389] | 0.5 | 47 | – | – | – |
| COc1ccc(S(=O)(=O)C[C@H](C)COc2ccc(S(=O)(=O)C3(C(=O)NO)CCOCC3)cc2)cc1 [Example 433] | 7 | 220 | – | – | – |
| COc1ccc2cc(C(=O)NCCCOc3ccc(S(=O)(=O)C4(C(=O)NO)CCOCC4)cc3)ccc2c1 [Example 380] | 0.2 | 450 | – | – | – |
| Cn1cnc(CC(=O)NCCOc2ccc(S(=O)(=O)C3(C(=O)NO)CCOCC3)cc2)c1 [Example 566] | – | – | – | – | IC50 ([1]; value outside parentheses): 18.8 nM; IC50 ([2]; value outside parentheses): 65.7 nM |
| O=C(NO)C1(S(=O)(=O)c2ccc(OCCn3nnc4ccccc4c3=O)cc2)CCOCC1 [Example 590] | – | – | – | – | IC50 ([1]; value outside parentheses): 48 nM; IC50 ([2]; value outside parentheses): 858 nM |
| CN(C)c1c(F)cc(-c2noc(CCCOc3ccc(S(=O)(=O)C4(C(=O)NO)CCOCC4)cc3)n2)cc1F [Example 251] | – | – | 5.4 | 182 | – |
| CC(C)c1ccc(NC(=O)CCCOc2ccc(S(=O)(=O)C3(C(=O)NO)CCOCC3)cc2)cc1 [Example 227] | – | – | 0.2 | 2.7 | – |
| COc1ccc(C(=CCCCOc2ccc(S(=O)(=O)C3(C(=O)NO)CCOCC3)cc2)c2ccc(OC)cc2)cc1 [Example 349] | 39 | 505 | – | – | – |
| O=C(NO)C1(S(=O)(=O)c2ccc(OCc3nc(-c4ccc(OC(F)(F)F)cc4)no3)cc2)CCOCC1 [Example 132] | – | – | 3.7 | 61.7 | – |

The next lines start with results.

| IC50 [1, 3] [nM] | IC50 [2, 3] [nM] | IC50 ([1]; value outside parenthesis) [nM] | IC50 ([2]; value outside parenthesis) [nM] | SMILES | also measured |
| --- | --- | --- | --- | --- | --- |
| 2.4 | 7700 | – | – | O=C1c2cc3ccccc3cc2C(=O)N1CCCOc1ccc(S(=O)(=O)C2(C(=O)NO)CCOCC2)cc1 [Example 343] | – |
| 14 | 3 | – | – | CN(C)c1ccc(C(=O)NCCCCOc2ccc(S(=O)(=O)C3(C(=O)NO)CCOCC3)cc2)cc1 [Example 397] | – |
| 45 | 50 | – | – | COc1ccc(C(=O)NCCOc2ccc(S(=O)(=O)C3(C(=O)NO)CCOCC3)cc2)cc1 [Example 393] | – |
| – | – | 13.3 | 138 | COCCN1CCC(C(=O)NO)(S(=O)(=O)c2ccc(OCCCn3cc(-c4ccc(F)cc4)cn3)cc2)CC1 [Example 222] | – |
| 5.9 | 1270 | – | – | COc1ccc2cc(O)c(C(=O)NCCCOc3ccc(S(=O)(=O)C4(C(=O)NO)CCOCC4)cc3)cc2c1 [Example 377] | – |
| 17 | 425 | – | – | O=C(NCCCOc1ccc(S(=O)(=O)C2(C(=O)NO)CCOCC2)cc1)c1cccc2ccccc12 [Example 375] | – |
| – | – | 17 | 443 | COCCN1CCC(C(=O)NO)(S(=O)(=O)c2ccc(OCCCn3nnc(-c4ccccc4OC)n3)cc2)CC1 [Example 180] | – |
| 1480 | 7200 | – | – | COc1ccc(C(=O)N2CC[C@@H](Oc3ccc(S(=O)(=O)C4(C(=O)NO)CCOCC4)cc3)C2)cc1 [Example 422] | – |
| 2.6 | 315 | – | – | O=C(NCCCOc1ccc(S(=O)(=O)C2(C(=O)NO)CCOCC2)cc1)c1ccccc1 [Example 417] | – |
| – | – | 11.4 | 32.2 | O=C1N(CCCOc2ccc(S(=O)(=O)C3(C(=O)NO)CCOCC3)cc2)CCN1c1ccccc1 [Example 196] | – |
| 1.4 | 46 | – | – | O=C(NO)C1(S(=O)(=O)c2ccc(OCCCCCc3ccc4ccccc4c3)cc2)CCOCC1 [Example 464] | – |
| – | – | 2.6 | 38.4 | COCCN1CCC(C(=O)NO)(S(=O)(=O)c2ccc(OCCCn3nnc(-c4ccccc4C)n3)cc2)CC1 [Example 151] | – |
| 0.1 | 3.2 | – | – | O=C(CCCOc1ccc(S(=O)(=O)C2(C(=O)NO)CCOCC2)cc1)c1ccc2ccccc2c1 [Example 299] | – |
| – | – | 0.4 | 11.1 | COCCN1CCC(C(=O)NO)(S(=O)(=O)c2ccc(OCCCn3nnc(-c4ccc5c(c4)OCO5)n3)cc2)CC1 [Example 146] | – |
| 1.4 | 20 | – | – | COc1ccc(S(=O)(=O)CCCCOc2ccc(S(=O)(=O)C3(C(=O)NO)CCOCC3)cc2)cc1 [Example 428] | – |
| 7.6 | 8.9 | – | – | O=C(NO)C1(S(=O)(=O)c2ccc(OCCCOc3ccccc3C(F)(F)F)cc2)CCOCC1 [Example 444] | – |
| 7.5 | 351 | – | – | O=C(NCCCOc1ccc(S(=O)(=O)C2(C(=O)NO)CCOCC2)cc1)c1ccncc1 [Example 383] | – |
| 1.5 | 7 | – | – | COc1ccc(SC[C@@H](C)COc2ccc(S(=O)(=O)C3(C(=O)NO)CCOCC3)cc2)cc1 [Example 432] | – |
